Results reported in US20190375708A1 (VenatoRx Pharmaceuticals, Inc., priority 2018, published 2019).

How the values were obtained:
[1] = In vitro cytotoxicity assay (MTT cell viability) in HepG2 cells; format: cell-based, human; conditions: human
Outline: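 Parental HepG2 cells in EMEM + 10% FBS were exposed to compounds (8 half-log dilutions, 30 μM to 1.0 nM) for 7 days at 37 °C, 5% CO2. MTT was then added for 3-4 h, formazan dissolved in DMSO and absorbance read at 492 nm; CC50 came from 4-parameter fits against vehicle controls.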

[2] = test system: HBV replication in HepAD38 cells; test: Anti-HBV replication assay in HepAD38 cells (QPCR of extracellular HBV DNA); format: cell-based, HBV (genotype D, serotype ayw); conditions: Hepatitis B virus, 168 h, 7 days incubation, extracellular HBV DNA by QPCR, read-out: Anti-HBV EC50
Outline: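 Compounds (1 log10 serial dilutions, […]) were left 7 days on tetracycline-free HepAD38 cultures, a HepG2 line with tet-controlled HBV genotype D. EC50 came from 4-parameter regression of percent inhibition versus vehicle, using supernatant HBV DNA copies/mL measured by QPCR.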

| Compound | CC50 at 7 days [1] [nM] | EC50 [2] [nM] |
| --- | --- | --- |
| Cc1cc(NC(=O)c2c(C)c(C(=O)C(=O)NC(C)(C)CO)n(CCO)c2C)ccc1F [Example 50, N-(4-fluoro-3-methylphenyl)-5-(2-((1-hydroxy-2-methylpropan-2-yl)amino)-2-oxoacetyl)-1-(2-hydroxyethyl)-2,4-dimethyl-1H-pyrrole-3-carboxamide] | > 30000 | > 1000 |
| CCOC(=O)[C@H](CO)NC(=O)C(=O)c1c(C)c(C(=O)Nc2ccc(F)c(C)c2)c(C)n1C [Example 25, ethyl (2-(4-((4-fluoro-3-methylphenyl)carbamoyl)-1,3,5-trimethyl-1H-pyrrol-2-yl)-2-oxoacetyl)-L-serinate] | > 30000 | 50 to 499 |
| Cc1noc([C@@H](NC(=O)C(=O)c2c(C)c(C(=O)Nc3ccc(F)c(C)c3)c(C)n2C)C(C)C)n1 [Example 145, (S)-N-(4-fluoro-3-methylphenyl)-1,2,4-trimethyl-5-(2-((2-methyl-1-(3-methyl-1,2,4-oxadiazol-5-yl)propyl)amino)-2-oxoacetyl)-1H-pyrrole-3-carboxamide] | > 30000 | < 50 |
| Cc1cc(NC(=O)c2c(Cl)c(C(=O)C(=O)N[C@@H](C)C(F)(F)F)n3c2CCCC3)cnc1F [Example 731, (S)-2-chloro-N-(6-fluoro-5-methylpyridin-3-yl)-3-(2-oxo-2-((1,1,1-trifluoropropan-2-yl)amino)acetyl)-5,6,7,8-tetrahydroindolizine-1-carboxamide] | 5000 to 30000 | < 50 |
| Cc1c(C(=O)Nc2cc(F)c(F)c(F)c2)c(Cl)c(C(=O)C(=O)NC(C)(C)CO)n1C [Example 373, 4-chloro-5-(2-((1-hydroxy-2-methylpropan-2-yl)amino)-2-oxoacetyl)-1,2-dimethyl-N-(3,4,5-trifluorophenyl)-1H-pyrrole-3-carboxamide] | 500 to 4990 | < 50 |
| Cc1noc(C2(NC(=O)C(=O)c3c(C)c(C(=O)Nc4cnc(F)c(C)c4)c(C)n3C)CC2)n1 [Example 160, N-(6-fluoro-5-methylpyridin-3-yl)-1,2,4-trimethyl-5-(2-((1-(3-methyl-1,2,4-oxadiazol-5-yl)cyclopropyl)amino)-2-oxoacetyl)-1H-pyrrole-3-carboxamide] | > 30000 | 50 to 499 |
| Cc1cc(NC(=O)c2c(C)c(C(=O)C(=O)NCCc3c(C)[nH][nH]c3=O)n(C)c2C)ccc1F [Example 650, N-(4-fluoro-3-methylphenyl)-1,2,4-trimethyl-5-(2-((2-(5-methyl-3-oxo-2,3-dihdyro-1H-pyrazol-4-yl)ethyl)amino)-2-oxoacetyl)-1H-pyrrole-3-carboxamide] | > 30000 | 50 to 499 |
| Cc1cc(NC(=O)c2c(C)c(C(=O)C(=O)NC(C)(C)CN3CCOCC3)n(C)c2C)ccc1F [Example 291, N-(4-fluoro-3-methylphenyl)-1,2,4-trimethyl-5-(2-((2-methyl-1-morpholinopropan-2-yl)amino)-2-oxoacetyl)-1H-pyrrole-3-carboxamide] | > 30000 | < 50 |
| Cc1cc(NC(=O)c2c(C)c(C(=O)C(=O)NC3CC4CCC(C3)S4(=O)=O)n(C)c2C)ccc1F (stereo not shown) [Example 624, 5-(2-((8,8-dioxido-8-thiabicyclo[3.2.1]ctan-3-yl)amino)-2-oxoacetyl)-N-(4-fluoro-3-methylphenyl)-1,2,4-trimethyl-1H-pyrrole-3-carboxamide] | > 30000 | < 50 |
| Cc1cc(NC(=O)c2c(Cl)c(C(=O)C(=O)NCc3cnc(N)s3)n3c2CCCC3)ccc1F [Example 503, 3-(2-(((2-aminothiazol-5-yl)methyl)amino)-2-oxoacetyl)-2-chloro-N-(4-fluoro-3-methylphenyl)-5,6,7,8-tetrahydroindolizine-1-carboxamide] | > 30000 | < 50 |
| Cc1cc(NC(=O)c2c(C)c(C(=O)C(=O)N[C@]3(C)CC[C@H](O)CC3)n(C)c2C)ccc1F [Example 228, N-(4-fluoro-3-methylphenyl)-5-(2-(((1s,4s)-4-hydroxy-1-methylcyclohexyl)amino)-2-oxoacetyl)-1,2,4-trimethyl-1H-pyrrole-3-carboxamide] | > 30000 | < 50 |
| Cc1c(C(=O)Nc2ccc(F)c(F)c2)c2n(c1C(=O)C(=O)NCCN)CCCC2 [Example 741, 3-(2-((2-aminoethyl)amino)-2-oxoacetyl)-N-(3,4-difluorophenyl)-2-methyl-5,6,7,8-tetrahydroindolizine-1-carboxamide] | > 30000 | 50 to 499 |
| Cc1cc(NC(=O)c2c(C)c(C(=O)C(=O)NCCN3CCC(O)CC3)n(C)c2C)ccc1F [Example 292, N-(4-fluoro-3-methylphenyl)-5-(2-((2-(4-hydroxypiperidin-1-yl)ethyl)amino)-2-oxoacetyl)-1,2,4-trimethyl-1H-pyrrole-3-carboxamide] | > 30000 | 50 to 499 |
| CCn1c(C)c(C(=O)Nc2ccc(F)c(C)c2)c(C)c1C(=O)C(=O)N[C@H]1CC[C@@H](O)CC1 [Example 284, 1-ethyl-N-(4-fluoro-3-methylphenyl)-5-(2-(((1s,4s)-4-hydroxycyclohexyl)amino)-2-oxoacetyl)-2,4-dimethyl-1H-pyrrole-3-carboxamide] | > 30000 | < 50 |
| Cc1cc(NC(=O)c2c(C)c(C(=O)C(=O)NC34CC5CC(CC3C5)C4)n(C)c2C)cnc1F [Example 113, N-(6-fluoro-5-methylpyridin-3-yl)-5-(2-(((2R,3as,5S,6as)-hexahydro-2,5-methanopentalen-3a(1H)-yl)amino)-2-oxoacetyl)-1,2,4-trimethyl-1H-pyrrole-3-carboxamide] | > 30000 | < 50 |
| Cc1cc(NC(=O)c2c(C)c(C(=O)C(=O)N[C@H]3C4CC5CC3C[C@](O)(C5)C4)n(C)c2C)cnc1F [Example 122, N-(6-fluoro-5-methylpyridin-3-yl)-5-(2-(((1R,2s,3S,5s,7s)-5-hydroxyadamantan-2-yl)amino)-2-oxoacetyl)-1,2,4-trimethyl-1H-pyrrole-3-carboxamide] | > 30000 | < 50 |
| Cc1cc(NC(=O)c2c(C)c(C(=O)C(=O)NCC3(O)CCOCC3)n(C)c2C)ccc1F [Example 150, N-(4-fluoro-3-methylphenyl)-5-(2-(((4-hydroxytetrahydro-2H-pyran-4-yl)methyl)amino)-2-oxoacetyl)-1,2,4-trimethyl-1H-pyrrole-3-carboxamide] | > 30000 | < 50 |
| Cc1cc(NC(=O)c2c(Cl)c(C(=O)C(=O)N[C@H]3COC[C@@H]3O)n3c2CCC3)ccc1F [Example 572, 6-chloro-N-(4-fluoro-3-methylphenyl)-5-(2-(((3S,4R)-4-hydroxytetrahydrofuran-3-yl)amino)-2-oxoacetyl)-2,3-dihydro-1H-pyrrolizine-7-carboxamide] | > 30000 | < 50 |
| Cc1cc(NC(=O)c2cc(C(=O)C(=O)NC(C)(C)C)n(C)c2)ccc1F [Example 1, 5-(2-(tert-butylamino)-2-oxocetyl)-N-(4-fluoro-3-methylphenyl)-1-methyl-1H-pyrrole-3-carboxamide] | > 30000 | < 50 |
| Cc1cc(NC(=O)c2c(C)c(C(=O)C(=O)N[C@H]3CC[C@@](O)(C(F)(F)F)CC3)n(C)c2C)cnc1F [Example 205, N-(6-fluoro-5-methylpyridin-3-yl)-5-(2-(((1r,4r)-4-hydroxy-4-(trifluoromethyl)cyclohexyl)amino)-2-oxoacetyl)-1,2,4-trimethyl-1H-pyrrole-3-carboxamide] | > 30000 | < 50 |
| Cc1cc(NC(=O)c2c(Cl)c(C(=O)C(=O)NCC(C)(C)O)n(C)c2C)ccc1F [Example 364, 4-chloro-N-(4-fluoro-3-methylphenyl)-5-(2-((2-hydroxy-2-methylpropyl)amino)-2-oxoacetyl)-1,2-dimethyl-1H-pyrrole-3-carboxamide] | 5000 to 30000 | < 50 |
| Cc1cc(NC(=O)c2cc(C(=O)C(=O)NC(C)(C)C)n3c2COCC3)ccc1F [Example 583, 6-(2-(tert-butylamino)-2-oxoacetyl)-N-(4-fluoro-3-methylphenyl)-3,4-dihydro-1H-pyrrolo[2,1-c][1,4]oxazine-8-carboxamide] | > 30000 | < 50 |
| Cc1cc(NC(=O)c2c(C)c(C(=O)C(=O)NC3(c4cccs4)CCCCC3)n(C)c2C)ccc1F [Example 633, N-(4-fluoro-3-methylphenyl)-1,2,4-trimethyl-5-(2-oxo-2-((1-(thiophen-2-yl)cyclohexyl)amino)acetyl)-1H-pyrrole-3-carboxamide] | > 30000 | < 50 |
| CNC(=O)[C@@H](NC(=O)C(=O)c1c(C)c(C(=O)Nc2ccc(F)c(C)c2)c(C)n1C)C(C)C [Example 108, (S)-N-(4-fluoro-3-methylphenyl)-1,2,4-trimethyl-5-(2-((3-methyl-1-(methylamino)-1-oxobutan-2-yl)amino)-2-oxoacetyl)-1H-pyrrole-3-carboxamide] | 500 to 4990 | < 50 |
| Cc1cc(NC(=O)c2c(C)c(C(=O)C(=O)N[C@H](C(=O)OC(C)(C)C)C(C)(C)C)n(C)c2C)ccc1F [Example 23, tert-butyl (S)-2-(2-(4-((4-fluoro-3-methylphenyl)carbamoyl)-1,3,5-trimethyl-1H-pyrrol-2-yl)-2-oxoacetamido)-3,3-dimethylbutanoate] | > 30000 | 50 to 499 |
| Cc1cc(NC(=O)c2c(C)c(C(=O)C(=O)NCC(=O)N3CCOCC3)n(C)c2C)ccc1F [Example 299, N-(4-fluoro-3-methylphenyl)-1,2,4-trimethyl-5-(2-((2-morpholino-2-oxoethyl)amino)-2-oxoacetyl)-1H-pyrrole-3-carboxamide] | > 30000 | 50 to 499 |
